Source: ChEMBL document CHEMBL2440076, “New triarylpyrazoles as broad-spectrum anticancer agents: design, synthesis, and biological evaluation” (Eur J Med Chem, 2013)

Legend:
SK-OV-3 = experiment: Growth inhibition of human SKOV3 cells assessed as cell growth at 10 uM after 48 hrs by sulforhodamine B assay; type: functional; settings: SK-OV-3, 48 h, read-out: Activity
HOP-62 = experiment: Growth inhibition of human HOP62 cells after 48 hrs by sulforhodamine B assay; type: functional; settings: HOP-62, 48 h
UACC-62 = experiment: Growth inhibition of human UACC62 cells assessed as cell growth at 10 uM after 48 hrs by sulforhodamine B assay; type: functional; settings: UACC-62, 48 h, read-out: Activity
UO-31 [1] = experiment: Growth inhibition of human UO31 cells after 48 hrs by sulforhodamine B assay; type: functional; settings: UO-31, 48 h
T47D [2] = experiment: Growth inhibition of human T47D cells assessed as cell growth at 10 uM after 48 hrs by sulforhodamine B assay; type: functional; settings: read-out: Activity
MDA-MB-435 [3] = experiment: Growth inhibition of human MDA-MB-435 cells assessed as cell growth at 10 uM after 48 hrs by sulforhodamine B assay; type: functional; settings: MDA-MB-435, 48 h, read-out: Activity
IGROV-1 = experiment: Growth inhibition of human IGROV1 cells after 48 hrs by sulforhodamine B assay; type: functional; settings: IGROV-1, 48 h
SK-MEL-28 = experiment: Growth inhibition of human SK-MEL-28 cells after 48 hrs by sulforhodamine B assay; type: functional; settings: SK-MEL-28, 48 h
T47D [4] = experiment: Growth inhibition of human T47D cells after 48 hrs by sulforhodamine B assay; type: functional
COLO 205 = experiment: Growth inhibition of human COLO205 cells after 48 hrs by sulforhodamine B assay; type: functional; settings: COLO 205, 48 h
OVCAR-4 = experiment: Growth inhibition of human OVCAR4 cells assessed as cell growth at 10 uM after 48 hrs by sulforhodamine B assay; type: functional; settings: OVCAR-4, 48 h, read-out: Activity
M14 = experiment: Growth inhibition of human M14 cells assessed as cell growth at 10 uM after 48 hrs by sulforhodamine B assay; type: functional; settings: M14, 48 h, read-out: Activity
SNB-19 = experiment: Growth inhibition of human SNB19 cells assessed as cell growth at 10 uM after 48 hrs by sulforhodamine B assay; type: functional; settings: SNB-19, 48 h, read-out: Activity
HCT-15 = experiment: Growth inhibition of human HCT15 cells after 48 hrs by sulforhodamine B assay; type: functional; settings: HCT-15, 48 h
LOX IMVI = experiment: Growth inhibition of human LOXIMVI cells after 48 hrs by sulforhodamine B assay; type: functional
MDA-MB-468 = experiment: Growth inhibition of human MDA-MB-468 cells after 48 hrs by sulforhodamine B assay; type: functional, cell-based; settings: MDA-MB-468, 48 h
HL-60(TB) = experiment: Growth inhibition of human HL-60(TB) cells after 48 hrs by sulforhodamine B assay; type: functional; settings: HL-60, 48 h
[5] = Growth inhibition of human HCC2998 cells after 48 hrs by sulforhodamine B assay; type: functional; settings: HCC 2998, 48 h
SF-295 = experiment: Growth inhibition of human SF295 cells after 48 hrs by sulforhodamine B assay; type: functional, cell-based; settings: SF-295, 48 h
MDA-MB-435 [6] = experiment: Growth inhibition of human MDA-MB-435 cells after 48 hrs by sulforhodamine B assay; type: functional, cell-based; settings: MDA-MB-435, 48 h
786-0 [7] = experiment: Growth inhibition of human 786-0 cells after 48 hrs by sulforhodamine B assay; type: functional; settings: 786-0, 48 h
A498 = experiment: Growth inhibition of human A498 cells assessed as cell growth at 10 uM after 48 hrs by sulforhodamine B assay; type: functional; settings: A498, 48 h, read-out: Activity
[8] = Growth inhibition of human Hs 578T cells assessed as cell growth at 10 uM after 48 hrs by sulforhodamine B assay; type: functional; settings: read-out: Activity
MDA-MB-231 [9] = experiment: Growth inhibition of human MDA-MB-231 cells after 48 hrs by sulforhodamine B assay; type: functional; settings: MDA-MB-231, 48 h
NCI-H322M = experiment: Growth inhibition of human NCI-H322M cells assessed as cell growth at 10 uM after 48 hrs by sulforhodamine B assay; type: functional; settings: read-out: Activity
MDA-MB-231 [10] = experiment: Growth inhibition of human MDA-MB-231 cells assessed as cell growth at 10 uM after 48 hrs by sulforhodamine B assay; type: functional; settings: MDA-MB-231, 48 h, read-out: Activity
RPMI-8226 = experiment: Growth inhibition of human RPMI8226 cells after 48 hrs by sulforhodamine B assay; type: functional, cell-based; settings: RPMI-8226, 48 h
786-0 [11] = experiment: Growth inhibition of human 786-0 cells assessed as cell growth at 10 uM after 48 hrs by sulforhodamine B assay; type: functional; settings: 786-0, 48 h, read-out: Activity
K562 [12] = experiment: Growth inhibition of human K562 cells assessed as cell growth at 10 uM after 48 hrs by sulforhodamine B assay; type: functional; settings: K562, 48 h, read-out: Activity
DU-145 = experiment: Growth inhibition of human DU145 cells assessed as cell growth at 10 uM after 48 hrs by sulforhodamine B assay; type: functional; settings: DU-145, 48 h, read-out: Activity
OVCAR-8 = experiment: Growth inhibition of human OVCAR8 cells assessed as cell growth at 10 uM after 48 hrs by sulforhodamine B assay; type: functional; settings: OVCAR-8, 48 h, read-out: Activity
ACHN = experiment: Growth inhibition of human ACHN cells assessed as cell growth at 10 uM after 48 hrs by sulforhodamine B assay; type: functional; settings: read-out: Activity
UO-31 [13] = experiment: Growth inhibition of human UO31 cells assessed as cell growth at 10 uM after 48 hrs by sulforhodamine B assay; type: functional; settings: UO-31, 48 h, read-out: Activity
K562 [14] = experiment: Growth inhibition of human K562 cells after 48 hrs by sulforhodamine B assay; type: functional; settings: K562, 48 h
[15] = read-out: LC50 (the source's name)

With `COc1cc(-c2nn(-c3cccc(NC(=O)Nc4cccc(C(F)(F)F)c4)c3)cc2-c2ccncc2)ccc1Cl` the growth at 10 µM (SK-OV-3) was 4.13%, the GI50 (HOP-62) was 1340 nM and the TGI (HOP-62) was 4.07 µM. For the same compound, the CC50 (HOP-62; [15]) was > 50 µM, the growth at 10 µM (UACC-62) was -76.1% and the GI50 (UO-31 [1]) was 702 nM. For the same compound, the TGI (UO-31 [1]) was 3.21 µM, the CC50 (UO-31 [1]; [15]) was > 50 µM and the growth at 10 µM (T47D [2]) was -4.03%. It also gave a growth at 10 µM (MDA-MB-435 [3]) of -50%, a GI50 (IGROV-1) of 1060 nM and an LC50 (concentration killing 50% of cells) (IGROV-1) of 50 µM. It also gave a TGI (IGROV-1) of 3.11 µM, a GI50 (SK-MEL-28) of 1120 nM and an LC50 (SK-MEL-28) of 21.1 µM. For the same compound, the TGI (SK-MEL-28) was 3.35 µM, the GI50 (T47D [4]) was 1650 nM and the TGI (T47D [4]) was > 50 µM. It also gave a CC50 (T47D [4]; [15]) of 50 µM, a GI50 (COLO 205) of 894 nM and an LC50 (concentration killing 50% of cells) (COLO 205) of 3.43 µM. The TGI (COLO 205) was 1750 nM, the growth at 10 µM (OVCAR-4) was 11.1% and the growth at 10 µM (M14) was -61.5%. It also gave a growth at 10 µM (SNB-19) of 23.5%, a GI50 (HCT-15) of 870 nM and an LC50 (HCT-15) of 50 µM. It also gave a TGI (HCT-15) of 5.42 µM, a GI50 (LOX IMVI) of 789 nM and an LC50 (LOX IMVI) of 3.46 µM. For the same compound, the TGI (LOX IMVI) was 1650 nM, the GI50 (MDA-MB-468) was 598 nM and the IC50 (MDA-MB-468) was 600 nM. For the same compound, the TGI (MDA-MB-468) was 2160 nM, the CC50 (MDA-MB-468; [15]) was 50 µM and the GI50 (HL-60(TB)) was 1370 nM. For the same compound, the TGI (HL-60(TB)) was > 50 µM, the CC50 (HL-60(TB); [15]) was > 50 µM and the GI50 [5] was 1190 nM. It also gave a TGI [5] of 3.2 µM, a CC50 [5, 15] of 15.3 µM and a GI50 (SF-295) of 306 nM. For the same compound, the IC50 (SF-295) was 310 nM, the TGI (SF-295) was 1130 nM and the CC50 (SF-295; [15]) was 3.2 µM. It also gave a GI50 (MDA-MB-435 [6]) of 866 nM, an IC50 (MDA-MB-435 [6]) of 870 nM and a TGI (MDA-MB-435 [6]) of 2140 nM. It also gave a CC50 (MDA-MB-435 [6]; [15]) of 8.07 µM, a GI50 (786-0 [7]) of 1280 nM and a TGI (786-0 [7]) of 4.05 µM. For the same compound, the CC50 (786-0 [7]; [15]) was > 50 µM, the growth at 10 µM (A498) was -5.17% and the growth at 10 µM [8] was -13.7%. It also gave a GI50 (MDA-MB-231 [9]) of 811 nM, an LC50 (MDA-MB-231 [9]) of 25.5 µM and a TGI (MDA-MB-231 [9]) of 2370 nM. For the same compound, the growth at 10 µM (NCI-H322M) was 21.7%, the growth at 10 µM (MDA-MB-231 [10]) was -28.8% and the GI50 (RPMI-8226) was 340 nM. For the same compound, the IC50 (RPMI-8226) was 340 nM, the TGI (RPMI-8226) was 3.12 µM and the CC50 (RPMI-8226; [15]) was > 50 µM. The growth at 10 µM (786-0 [11]) was -15%, the growth at 10 µM (K562 [12]) was 1.6% and the growth at 10 µM (DU-145) was 9.75%. The growth at 10 µM (OVCAR-8) was -36.2%, the growth at 10 µM (ACHN) was 6.54% and the growth at 10 µM (UO-31 [13]) was 7.94%. The GI50 (K562 [14]) was 584 nM, the TGI (K562 [14]) was > 50 µM and the CC50 (K562 [14]; [15]) was > 50 µM.
